# Laboratory results as given in ChEMBL document CHEMBL5518228, “DNA Interaction and Cleavage Modes of Anthraquinone-Fused Enediynes: A Study on Tiancimycins, Yangpumicins, and Their Semisynthetic Analogues” (J Med Chem, 2024).
# Activity calls are given as the source filed them. The calls are words filed in the database; no cut-off is given here.
# Tests used:
# Calf thymus DNA [1] = assay: Binding affinity to calf thymus DNA assessed as change in gibbs free energy in presence of ethidium bromide by competitive binding based fluorescence spectroscopic analysis; type: nucleic-acid assay; conditions: Bos taurus
# [2] = Cytotoxicity against human HUVEC cells incubated for 72 hrs by CCK-8 assay; type: toxicity, cell-based
# [3] = Cytotoxicity against human NCM460 cells incubated for 72 hrs by CCK-8 assay; type: toxicity, cell-based
# DNA [4] = assay: Induction of duplex DNA (unknown origin) cleavage assessed as DNA cleaved fragments at AT-rich region at 100 uM incubated for 6 hr in presence of DTT by agarose gel electrophoresis analysis; type: nucleic-acid assay
# [5] = Cytotoxicity against human KPL-4 cells incubated for 72 hrs by CCK-8 assay; type: functional, cell-based; conditions: KPL4, 72 h
# Supercoiled DNA [6] = assay: Induction of supercoiled pBR322 DNA (unknown origin) cleavage assessed as relaxation of supercoiled plasmid incubated for 1 hr in presence of DTT by SYBR I Green staining based agarose gel electrophoresis analysis; type: nucleic-acid assay
# Jurkat = assay: Cytotoxicity against human Jurkat cells incubated for 72 hrs by CCK-8 assay; type: functional, cell-based
# Caco-2 = assay: Cytotoxicity against human Caco-2 cells incubated for 72 hrs by CCK-8 assay; type: functional, cell-based; conditions: Caco-2, 72 h
# A549 = assay: Cytotoxicity against human A549 cells incubated for 72 hrs by CCK-8 assay; type: functional, cell-based; conditions: A549, 72 h
# DNA [7] = assay: Induction of duplex DNA (unknown origin) cleavage assessed as DNA cleaved fragments at AT-rich region at 1 mM incubated for 6 hr in presence of DTT by agarose gel electrophoresis analysis; type: nucleic-acid assay
# DNA [8] = assay: Induction of duplex DNA (unknown origin) cleavage assessed as DNA cleaved fragments at GC-rich region at 17.5 uM incubated for 1 hr in presence of FeSO4.7H2O by agarose gel electrophoresis analysis; type: nucleic-acid assay
# Supercoiled DNA [9] = assay: Induction of supercoiled pBR322 DNA (unknown origin) cleavage at 0.5 uM incubated for 1 hr in presence of mannitol under pH 7.4 condition by agarose gel electrophoresis analysis; type: nucleic-acid assay
# Supercoiled DNA [10] = assay: Induction of supercoiled pBR322 DNA (unknown origin) cleavage at 0.5 uM incubated for 1 hr in presence of pyridine under pH 7.4 condition by agarose gel electrophoresis analysis; type: nucleic-acid assay
# Supercoiled DNA [11] = assay: Induction of supercoiled pBR322 DNA (unknown origin) cleavage at 0.5 uM incubated for 1 hr under pH 7.5 condition by agarose gel electrophoresis analysis; type: nucleic-acid assay
# Supercoiled DNA [12] = assay: Induction of supercoiled pBR322 DNA (unknown origin) cleavage at 0.5 uM incubated for 1 hr in presence of methanol under pH 7.4 condition by agarose gel electrophoresis analysis; type: nucleic-acid assay
# Supercoiled DNA [13] = assay: Induction of supercoiled pBR322 DNA (unknown origin) cleavage at 0.5 uM incubated for 1 hr in presence of ethanol under pH 7.4 condition by agarose gel electrophoresis analysis; type: nucleic-acid assay
# Supercoiled DNA [14] = assay: Induction of supercoiled pBR322 DNA (unknown origin) cleavage at 0.5 uM incubated for 1 hr in presence of catalase under pH 7.4 condition by agarose gel electrophoresis analysis; type: nucleic-acid assay
# Calf thymus DNA [15] = assay: Binding affinity to calf thymus DNA assessed as DNA insertion by measuring change in gibbs free energy by fluorescence spectroscopic analysis; type: nucleic-acid assay; conditions: Bos taurus
# Calf thymus DNA [16] = assay: Binding affinity to calf thymus DNA assessed as DNA insertion by measuring change in gibbs free energy in presence of triggered form of compound by fluorescence spectroscopic analysis; type: nucleic-acid assay; conditions: Bos taurus
# Supercoiled DNA [17] = assay: Induction of supercoiled pBR322 DNA (unknown origin) cleavage at 5 uM incubated for 1 hr in presence of mannitol under pH 7.4 condition by agarose gel electrophoresis analysis; type: nucleic-acid assay
# Supercoiled DNA [18] = assay: Induction of supercoiled pBR322 DNA (unknown origin) cleavage at 5 uM incubated for 1 hr in presence of ethanol under pH 7.4 condition by agarose gel electrophoresis analysis; type: nucleic-acid assay
# Supercoiled DNA [19] = assay: Induction of supercoiled pBR322 DNA (unknown origin) cleavage at 5 uM incubated for 1 hr in presence of methanol under pH 7.4 condition by agarose gel electrophoresis analysis; type: nucleic-acid assay
# Supercoiled DNA [20] = assay: Induction of supercoiled pBR322 DNA (unknown origin) cleavage at 5 uM incubated for 1 hr in presence of pyridine under pH 7.4 condition by agarose gel electrophoresis analysis; type: nucleic-acid assay
# Supercoiled DNA [21] = assay: Induction of supercoiled pBR322 DNA (unknown origin) cleavage at 5 uM incubated for 1 hr in presence of catalase under pH 7.4 condition by agarose gel electrophoresis analysis; type: nucleic-acid assay
# Supercoiled DNA [22] = assay: Induction of supercoiled pBR322 DNA (unknown origin) cleavage at 5 uM incubated for 1 hr under pH 5.5 to 9.5 condition by agarose gel electrophoresis analysis; type: nucleic-acid assay
# Supercoiled DNA [23] = assay: Induction of supercoiled pBR322 DNA (unknown origin) cleavage at 100 nM incubated for 1 hr in presence of DTT by agarose gel electrophoresis analysis; type: nucleic-acid assay
# Supercoiled DNA [24] = assay: Induction of supercoiled pBR322 DNA (unknown origin) cleavage at 100 nM incubated for 1 hr in presence of NADPH by agarose gel electrophoresis analysis; type: nucleic-acid assay
# Supercoiled DNA [25] = assay: Induction of supercoiled pBR322 DNA (unknown origin) cleavage at 100 nM incubated for 1 hr in presence of GSH by agarose gel electrophoresis analysis; type: nucleic-acid assay
Compound,deltaG (Calf thymus DNA [1]),IC50 at 72 h [2],IC50 at 72 h [3],Activity (DNA [4]),IC50 [5],EC50 (Supercoiled DNA [6]),IC50 (Jurkat),IC50 (Caco-2),IC50 (A549),further results
COC1=C(C(=O)O)[C@H](C)[C@@]23O[C@]24c2cc(O)c5c(c2N[C@H]3C#C/C=C\C#CC14)C(=O)c1ccccc1C5=O,-3.79 kcal/mol,,,,,,,,,
O=C1c2cccc(O)c2C(=O)c2c3c(cc(O)c21)[C@@]12O[C@@]1([C@H](O)CO)[C@H](C#C/C=C\C#C[C@H]2O)N3,-8.41 kcal/mol,0.8 nM,0.2 nM,Active,0.01 nM,261 nM,0.02 nM,13.5 nM,0.2 nM,
COc1cccc2c1C(=O)c1c(O)c3c(c(O)c1C2=O)C[C@@](O)(C(=O)CO)C[C@@H]3O[C@H]1C[C@H](N)[C@H](O)[C@H](C)O1,-9.68 kcal/mol,,,,,,,,,
COC(=O)[C@@H](O)[C@@](C)(O)[C@@]12O[C@]13c1cc(O)c4c(c1N[C@H]2C#C/C=C\C#C[C@H]3O)C(=O)c1cc(OC)ccc1C4=O,-7.99 kcal/mol,15.5 nM,2.8 nM,Active,0.5 nM,583 nM,0.1 nM,6.8 nM,2.8 nM,
COc1ccc2c(c1OC)C(=O)c1c3c(cc(OC)c1C2=O)[C@@]12O[C@@]1([C@@H](C)O)[C@H](C#C/C=C\C#C[C@H]2O)N3,,525 nM,382 nM,,32.8 nM,> 1000 nM,117 nM,635 nM,787 nM,Activity (DNA [7]): inactive
BLEOMYCIN,,,,,,,,,,Activity (DNA [8]): Active
COC(=O)[C@@H](O)[C@@](C)(O)[C@@]12O[C@]13c1cc(O)c4c(c1N[C@H]2C#C/C=C\C#C[C@H]3O)C(=O)c1c(ccc(OC)c1O)C4=O,-8.56 kcal/mol,0.4 nM,0.4 nM,Active,0.04 nM,248 nM,0.4 nM,0.4 nM,0.1 nM,Activity (Supercoiled DNA [9]): Active; Activity (Supercoiled DNA [10]): Active; Activity (Supercoiled DNA [11]): Active; Activity (Supercoiled DNA [12]): Active; Activity (Supercoiled DNA [13]): Active; Activity (Supercoiled DNA [14]): Active
COC1=C(C(=O)O)[C@H](C)[C@@]23O[C@]24c2cc(O)c5c(c2N[C@H]3C#C/C=C\C#CC14)C(=O)c1c(O)ccc(O)c1C5=O,2.62 kcal/mol,,,,,,,,,deltaG (Calf thymus DNA [15]): -18.1 kcal/mol; deltaG (Calf thymus DNA [16]): -13.6 kcal/mol
COc1cc(Br)c2c(c1O)C(=O)c1c3c(cc(O)c1C2=O)[C@@]12O[C@@]1([C@@H](C)O)[C@H](C#C/C=C\C#C[C@H]2O)N3,-8.13 kcal/mol,22.7 nM,3.3 nM,Active,0.31 nM,79 nM,2.6 nM,154 nM,11 nM,
C[C@@H](O)C12O[C@]13c1cc(O)c4c(c1N[C@H]2C#C/C=C\C#C[C@H]3O)C(=O)c1c(O)cccc1C4=O (stereo not given in full),-8.31 kcal/mol,0.2 nM,0.07 nM,Active,0.006 nM,75.5 nM,0.009 nM,1.4 nM,0.06 nM,
COc1ccc2c(c1O)C(=O)c1c3c(cc(O)c1C2=O)[C@@]12O[C@@]1([C@](C)(O)[C@H](O)C(=O)O)[C@H](C#C/C=C\C#C[C@H]2O)N3,-8.48 kcal/mol,6.8 nM,0.6 nM,,0.24 nM,760 nM,1 nM,158 nM,10.1 nM,Activity (Supercoiled DNA [17]): Active; Activity (Supercoiled DNA [18]): Active; Activity (Supercoiled DNA [19]): Active; Activity (Supercoiled DNA [20]): Active; Activity (Supercoiled DNA [21]): Active; Activity (DNA [7]): inactive; Activity (Supercoiled DNA [22]): Active
COC(=O)[C@@H](O)[C@@](C)(O)[C@@]12O[C@]13c1cc(O)c4c(c1N[C@H]2C#C/C=C\C#C[C@H]3O)C(=O)c1c(O)c(OC)cc(-n2[nH]c(=O)n(-c3ccccc3)c2=O)c1C4=O,,946 nM,227 nM,inactive,23.7 nM,33.2 nM,44.7 nM,613 nM,499 nM,
O=C1c2ccccc2C(=O)c2c3c(cc(O)c21)[C@@]12O[C@@]1([C@H](O)CO)[C@H](C#C/C=C\C#C[C@H]2O)N3,-8.31 kcal/mol,0.3 nM,0.1 nM,Active,0.004 nM,83.3 nM,0.01 nM,5.4 nM,0.2 nM,Activity (Supercoiled DNA [23]): Active; Activity (Supercoiled DNA [24]): inactive; Activity (Supercoiled DNA [25]): Active
